Assays:
[1] = system: Ba/F3 parental cells; assay: Inhibition of Ba/F3 parental cell proliferation (CTG); assay type: cell-based; settings: Mus musculus, BaF3, 72 hours, with IL-3
Procedure: Cell lines were cultured under the condition of 37° C., 5% CO2 and 95% humidity: cell line Ba/F3 parental (suspended, 3000 cells/well, medium was RPMI-1640+10% FBS+8 ng/ml IL-3), cell line Ba/F3 FLT3-ITD (suspended, 3000 cells/well, medium was RPMI-1640+10% FBS)
Reagents and materials: Fetal bovine serum (FBS, GBICO, Cat. No. 10099-141), CellTiter-Glo® Luminescent Cell Viability Assay (Promega, Cat. No. G7572), 96-well plate with transparent flat bottom and black walls (Corning®, Cat. No. 3603), control compound AC220 (Selleck, Cat. No. S1526).
Cell Culture and Inoculation: • 1. Cells in the logarithmic growth phase were harvested and counted using a platelet counter. The cell viability was determined by trypan blue exclusion method to ensure that the cell viability was greater than 90%; • 2. The cell concentration was adjusted and 90 μL of the cell suspension was added into a 96-well plate respectively; • 3. The cells in the 96-well plate were cultured overnight under the condition of 37° C., 5% CO2 and 95% humidity.
Drug Dilution and Dosing: • 1. The 10-fold drug solutions were prepared with a maximum concentration of 100 μM, which was diluted using a 3.16-fold serial gradient dilution, resulting in 9 concentrations. 10 μL of the drug solutions was added to each well of the 96-well plate inoculated with Ba/F3 parental cells; and each drug concentration was set in triplicate. • 2. The 10-fold drug solutions were prepared with a maximum concentration of 10 μM, which was diluted using a 3.16-fold serial gradient dilution, resulting in 9 concentrations. 10 μL of the drug solutions was added to each well of the 96-well plate inoculated with Ba/F3 FLT3-ITD cells; and each drug concentration was set in triplicate. • 3. The cells in the 96-well plate with drugs were cultured at 37° C., 5% CO2 and 95% humidity for 72 hours, and then CTG analysis was carried out.
Plate Reading at the End Point: • 1. CTG reagent was thawed and the cell plate was equilibrated to room temperature for 30 minutes; • 2. Equal volume of the CTG solution was added to each well; • 3. The cell plate was shaked on the orbital shaker for 5 minutes to lyse the cells; • 4. The cell plate was placed at room temperature for 20 minutes to stabilize the cold light signal; • 5. The cold light values were read.
GraphPad Prism 8.0 software was used to analyze the data, and the data was fitted using the non-linear S-curve regression to get a dose-effect curve, and IC50 values were calculated. Cell viability (%)=(Lum of test drug−Lum of medium control)/(Lum of cell control−Lum of medium control)×100%.

[2] = Metabolic stability in human liver microsomes; assay type: in vitro ADME; settings: pH 7.4; human liver microsomes 0.5 mg/mL, 1 μM compound
Procedure: Microsome assay: human liver microsomes: 0.5 mg/mL, Xenotech; rat liver microsomes: 0.5 mg/mL, Xenotech; coenzyme (NADPH/NADH): 1 mM, Sigma Life Science; magnesium chloride: 5 mM, 100 mM phosphate buffer (pH 7.4).
Preparation of stock solutions: Powder of the example compounds and the control compound were accurately weighed and dissolved in DMSO to 5 mM respectively.
Preparation of phosphate buffer (100 mM, pH7.4): A pre-prepared 0.5 M potassium dihydrogen phosphate (150 mL) was mixed with 0.5 M dibasic potassium phosphate (700 mL). The pH of the mixture was adjusted to 7.4 with 0.5 M dibasic potassium phosphate solution. The mixture was diluted 5-fold with ultrapure water before use, and magnesium chloride was added to obtain a phosphate buffer (100 mM) containing 100 mM potassium phosphate, 3.3 mM magnesium chloride, pH 7.4.
A NADPH regeneration system solution (containing 6.5 mM NADP, 16.5 mM G-6-P, 3 U/mL G-6-P D, 3.3 mM magnesium chloride) was prepared and placed on wet ice prior to use.
Preparation of stop solution: an acetonitrile solution containing 50 ng/mL propranolol hydrochloride and 200 ng/mL tolbutamide (internal standard). 25057.5 μL of phosphate buffer (pH 7.4) was taken into a 50 mL centrifuge tube, to which 812.5 μL of human liver microsomes were added, and mixed to obtain a liver microsome dilution with a protein concentration of 0.625 mg/mL. 25057.5 μL of phosphate buffer (pH 7.4) was taken into a 50 mL centrifuge tube, to which 812.5 μL of SD rat microsomes were added, and mixed to obtain a liver microsome dilution with a protein concentration of 0.625 mg/mL.
Incubation of the samples: The stock solutions of the respective compounds were respectively diluted to 0.25 mM with an aqueous solution containing 70% acetonitrile, and used as a working solution, ready for use. 398 μL of the dilutions of human liver microsomes and rat liver microsomes were added to 96-well incubation plates (N=2), respectively, and 2 μL of 0.25 mM working solution was added respectively and mixed.
Metabolic stability assay: 300 μL of pre-chilled stop solution was added to each well of 96-well deep well plates and placed on ice as stop plates. The 96-well incubation plates and NADPH regeneration system were placed in a 37° C. water bath, shaken at 100 rpm and pre-incubated for 5 min. 80 μL of incubation solution was taken out from each well of the incubation plates and added to the stop plates, mixed, and replenished with 20 μL of NADPH regeneration system solution as a 0-min sample. 80 μL of NADPH regeneration system solution was added to each well of the incubation plates to start the reaction and start counting. […] Separately, 100 μL of the reaction solutions was taken at 10, 30, and 90 min after the reaction, respectively, added to stop plates, and vortexed for 3 minutes to terminate the reaction. The stop plates were centrifuged at 5000×g at 4° C. for 10 min. 100 μL of the supernatant was added to a 96-well plate to which 100 μL of distilled water was previously added, mixed, and analyzed by LC-MS/MS.
Data analysis: The peak areas of the corresponding compounds and internal standard were detected by LC-MS/MS system, and the ratio of the peak area of the compounds to the internal standard was calculated.

half-life at 1 μM [2] | microsomal CLint at 1 μM [2] | Structure (SMILES) | IC50 [1]
 |  | [2H]C([2H])([2H])Oc1cc(Nc2nc(NC3CCOCC3)c(CC)nc2C(N)=O)ccc1N1CCC(N2CCN(C)CC2)CC1 [Compound T-1, 6-ethyl-3-((3-(methoxy-d3)-4-(4-(4-methylpiperazin-1-yl)piperidin-1-yl)phenyl)amino)-5-((tetrahydro-2H-pyran-4-yl)amino)pyrazine-2-carboxamide] | 9.72 µM
7.88 h | 2.9 µL/min/mg | [2H]C([2H])([2H])N1C([2H])([2H])C([2H])([2H])N(C2CCN(c3ccc(Nc4nc(NC5CCOCC5)c(CC)nc4C(N)=O)cc3OC)CC2)C([2H])([2H])C1([2H])[2H] [Compound T-9, 6-ethyl-3-((3-methoxy-4-(4-(4-(methyl-d3)piperazin-1-yl-2,2,3,3,5,5,6,6-d8)piperidin-1-yl)phenyl)amino)-5-((tetrahydro-2H-pyran-4-yl)amino)pyrazine-2-carboxamide] | > 10 µM
4.36 h | 5.3 µL/min/mg | [2H]C1([2H])N(C)C([2H])([2H])C([2H])([2H])N(C2CCN(c3ccc(Nc4nc(NC5CCOCC5)c(CC)nc4C(N)=O)cc3OC)CC2)C1([2H])[2H] [Compound T-8, 6-ethyl-3-((3-methoxy-4-(4-(4-methylpiperazin-1-yl-2,2,3,3,5,5,6,6-d8)piperidin-1-yl)phenyl)amino)-5-((tetrahydro-2H-pyran-4-yl)amino)pyrazine-2-carboxamide] | 6.87 µM
2.75 h | 8.4 µL/min/mg | CCc1nc(C(N)=O)c(Nc2ccc(N3CCC(N4CCN(C)CC4)CC3)c(OC)c2)nc1NC1CCOCC1 [Gilteritinib, 6-ethyl-3-((3-methoxy-4-(4-(4-methylpiperazin-1-yl)piperidin-1-yl)phenyl)amino)-5-((tetrahydro-2H-pyran-4-yl)amino)pyrazine-2-carboxamide, reference compound] | 
3.14 h | 7.4 µL/min/mg | [2H]C([2H])([2H])N1CCN(C2CCN(c3ccc(Nc4nc(NC5CCOCC5)c(C([2H])([2H])C([2H])([2H])[2H])nc4C(N)=O)cc3OC)CC2)CC1 [Compound T-5, 6-(ethyl-d5)-3-((3-methoxy-4-(4-(4-(methyl-d3)piperazin-1-yl)piperidin-1-yl)phenyl)amino)-5-((tetrahydro-2H-pyran-4-yl)amino)pyrazine-2-carboxamide] | 9.29 µM
3.33 h | 6.9 µL/min/mg | [2H]C([2H])([2H])Oc1cc(Nc2nc(NC3CCOCC3)c(CC)nc2C(N)=O)ccc1N1CCC(N2CCN(C([2H])([2H])[2H])CC2)CC1 [Compound T-3, 6-ethyl-3-((3-(methoxy-d3)-4-(4-(4-(methyl-d3)piperazin-1-yl)piperidin-1-yl)phenyl)amino)-5-((tetrahydro-2H-pyran-4-yl)amino)pyrazine-2-carboxamide] | 5.37 µM
3.63 h | 6.4 µL/min/mg | [2H]C([2H])([2H])N1CCN(C2CCN(c3ccc(Nc4nc(NC5CCOCC5)c(CC)nc4C(N)=O)cc3OC)CC2)CC1 [Compound T-2, 6-ethyl-3-((3-methoxy-4-(4-(4-(methyl-d3)piperazin-1-yl)piperidin-1-yl)phenyl)amino)-5-((tetrahydro-2H-pyran-4-yl)amino)pyrazine-2-carboxamide] | 7.16 µM

From patent US11512074B2, “Substituted diamino heterocyclic carboxamide compound and a composition containing the compound and use thereof” (Shenzhen TargetRx, Inc., priority 2018, dated 2022)
